From patent US11974985B2, “Composition of aminopyran derivative” (HAISCO PHARMACEUTICAL GROUP CO., LTD., priority 2018, dated 2024)

Test: Compatibility test of compound of formula (I) with lactose, change of impurities
Format: physicochemical
Settings: room temperature
Experimental: A compatibility test was carried out with lactose (a reducing sugar) and the compound of formula (I) at room temperature in which, after both were mixed in a certain ratio, the changes of impurity in the compound of formula (I) were tested.

SMILES: CS(=O)(=O)n1cc2c(n1)CN([C@@H]1C[C@H](N)[C@@H](c3cc(F)ccc3F)O[C@@H]1C(F)(F)F)C2 [Compound of formula (I)]
- Main peak area (%): 99.247%
- Number of impurities: 5
- Total impurities (%): 0.753%
